Consider 9 compounds from US20210395235A1, “COMPOUND AS TGF-beta R1 INHIBITOR AND APPLICATION THEREOF” (NANJING SANHOME PHARMACEUTICAL CO., LTD., priority 2018, published 2021).

The target in one series is T1, ALK5 (Homo sapiens, UniProt P36897).
T1 construct: purchased Carna 09-141
T1 sequence (P36897 162-503 limits assumed): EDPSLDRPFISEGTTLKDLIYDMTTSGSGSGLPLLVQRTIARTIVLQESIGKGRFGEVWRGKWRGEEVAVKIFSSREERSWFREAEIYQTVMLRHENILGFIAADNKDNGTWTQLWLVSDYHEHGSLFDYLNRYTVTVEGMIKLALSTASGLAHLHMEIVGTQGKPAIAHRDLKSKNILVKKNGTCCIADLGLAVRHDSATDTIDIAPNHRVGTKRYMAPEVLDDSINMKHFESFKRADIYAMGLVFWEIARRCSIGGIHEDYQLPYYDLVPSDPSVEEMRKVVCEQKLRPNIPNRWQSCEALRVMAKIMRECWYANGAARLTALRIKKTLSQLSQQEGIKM
The experiment in a line: In vitro activity against ALK5 kinase (ADP-Glo Kinase Assay). It counts as biochemical. The conditions noted are these: 28° C. 120 minutes. The method, then:
For the compounds of the present disclosure prepared in the above examples, each compound was prepared into 10 mM with DMSO, and then diluted to 3.333 μM, 1.111 μM, 370 nM, 123 nM, 41 nM, 14 nM, 4.6 nM, 1.5 nM and 0.5 nM successively.
Reagents: ALK5, Cat. No. 09-141, purchased from Carna; p38α, Cat. No. 04-152, purchased from the Carna; TGFβR1 peptides, Cat. No. T36-58, purchased from SignalChem; dimethyl sulfoxide (DMSO), purchased from Sigma, US; EDTA, purchased from Sigma, US; and ADP-Glo Kinase Assay, Cat. No. v9102/3, 1×Kinase buffer (40 mM Tris, pH7.5, 0.10% BSA, 20 mM MgCl2, 1 mM DTT), purchased from Promega, and prepared immediately before use.
2.2.1.1 Preparation of 50-fold compounds: The compounds were prepared into 500 μM, 50-fold concentration as the final concentration 10 μM for detecting the compounds, which was performed as following: into a second well of a 96-well plate, 95 μl of 100% DMSO was added, and then 5 μl of the 10 mM compound solution was added, to prepare a […] compound solution; into other wells, 60 μl of 100% DMSO was added; from the second well, 30 μl of the compound was drawn out and added into a third well; such 3-fold serial dilution was continued successively until 10 dilutions of concentration were made.
The kinase was added to a 1× kinase buffer, to form a 2× enzyme solution. 2.5 μl of the 2× enzyme solution was added to a 384-well reaction plate which already contained 100 nl of 100% DMSO-dissolved compound, to incubate at room temperature for 10 minutes.
FAM labeled peptides and ATP were added to the 1× kinase buffer, to form a 2× substrate solution. 2.5 μl of the 2× substrate solution was added to the 384-well reaction plate.
The 384-well plate was incubated at 28° C. for 120 minutes.
2.5.1 An ADP-Glo reagent was equilibrated to room temperature.
2.5.2 5 μl of the reaction solution was transferred into a reaction well at another new 384-well plate.
2.5.3 5 μl of the ADP-Glo reagent was transferred into the reaction well at the 384-well plate to stop the reaction.
2.5.4 An incubation was performed at 28° C. for 120 minutes.
2.5.5 10 μl of a kinase detection reagent was transferred into each reaction well, shaken for 1 minute, and was allowed to stand for 30 minutes at room temperature.
The luminescence value of the sample was read from Envision.
2.7.1 Luminescence reading data were copied from the Envision program.
2.7.2 The values of the luminescence reading were converted into the percent inhibition by the following formula.
Percent inhibition=(max−sample RLU)/(max−min)×100, where “min” stands for the fluorescence reading of the control sample with no enzyme added to the reaction; and “max” stands for the fluorescence reading of the sample with DMSO added as a control.
2.7.3 The date were imported into MS Excel and subjected to curve fitting using XLFit excel add-in version 5.4.0.8 and a fitting formula: Y=Bottom+(Top−Bottom)/(1+(IC50/X)^HillSlope).
(In general: ADP-Glo turns the ADP formed in a reaction into a luminescent signal.)

The test system of series [1] is TGFβ-ALK5-SMAD2/3 signaling pathway in Luc-Smad2/3-NIH3T3 cells. The experiment in a line: In vitro cell luciferase assay in Luc-Smad2/3-NIH3T3 cells stimulated with TGFβ1. The series is classed as cell-based. The conditions noted are these: Mus musculus; TGFβ1 4 ng/mL, 2% FBS medium, luciferase chemiluminescence. Here is the method:
Test compounds: For the compounds of the present disclosure prepared in the above examples, each compound was prepared into 4 mM using DMSO. Then, a 4-fold serial dilution was made to obtain 20000.00 nM, 5000.00 nM, 1250.00 nM, 312.5 nM, 78.125 nM, 19.53 nM, 4.88 nM and 1.22 nM successively.
Luc-Smad2/3-NIH3T3 mouse fibroblasts (engineered to overexpress SMAD2,3-responsive promoter) were provided by a laboratory of China Pharmaceutical University.
Reagents: DMEM, purchased from Invitrogen, US; FBS, purchased from Invitrogen, US; DMSO, purchased from Sigma, US; Glo Lysis Buffer, purchased from Progema, US; Bright-Glo Luciferase assay system, purchased from Promega, US; and TGFβ, purchased from PeproTech, US.
Instruments: MD SpectraMaX M3 multifunctional enzyme reader, purchased from Molecular Devices, US.
Cell recovery: The cells were dissolved by placing in a […] water bath, then transferred to a 15 mL of pre-warmed culture medium, and centrifuged at 1000 rpm for 5 minutes. After the culture medium was discarded, the cells were resuspend in 15 mL of fresh culture medium, transferred to a 10 cm dish, and placed in an incubator at 37° C. with 5% CO2 for culture. After 24 hours, the culture medium for the cells was changed with a fresh culture medium.
Cell passage: The recovered cells were transferred to a 50 mL sterile centrifuge tube and centrifuged at 1000 rpm for 5 minutes. The culture medium was discarded. The evenly dispersed cells was counted, and adjusted to an appropriate cell concentration of 15 mL of fresh culture medium, added to a 10 cm dish, and placed in an incubator at 37° C. with 5% CO2 for culture.
Luc-Smad2/3-NIH3T3 cells were cultured normally in a 10 cm culture dish until the confluence reached 80%-90%. After digestion, they were collected in a 15 mL centrifuge tube, centrifuged at 1000×g for 5 minutes to remove the supernatant, and resuspended with 1 mL of medium, then diluted 10 times and counted. The cells was diluted according to the results from the count, and transferred into a 96-well plate at 4×10^3/cells per well (100 μl of resuspended cells was added in each well).
1-2 mg of the drug was weighed (weighed in advance), and prepared into a 4 mM stock solution using DMSO. After 24 hours, the culture medium was removed. The drug was diluted with 2% FBS culture medium. 100 μl of the 1× drug solution was added to make the final concentration of the drug to be 20000.00 nM, 5000.00 nM, 1250.00 nM, 312.5 nM, 78.125 nM, 19.53 nM, 4.88 nM, and 1.22 nM. TGFβ1 was present in each well at a final concentration of 4 ng/mL, and diluted with 2% FBS culture medium together with the compounds.
The Glo Lysis Buffer and the Bright-glo luciferase assay system as well as the cells were equilibrated to room temperature. After the cell supernatant was removed, the cells were dissolved evenly by adding 100 μl of the Glo Lysis Buffer to each well with shaking slowly, and lysed at room temperature for 5 minutes. After that, to each well, 100 μl of the Bright-glo luciferase assay system was added to incubate the cells for 5 minute at room temperature with shaking for 2 minutes. Then, 180 μl of the supernatant was transferred to a white bottom 96-well plate to detect chemiluminescence signal. The detection condition was 1 s.
2.3 Data processing: Graphpad Prism 5 software was used to perform nonlinear curve fitting and data analysis to obtain IC50 by fitting.

For series [2] the following is noted: animal models; cited from earlier work.

On to `CC1(O)CCN(c2ccc3c(Oc4cn(C5CC5)nc4C4CCOCC4)ccnc3c2)CC1` [Example 5, 1-(4-((1-cyclopropyl-3-(tetrahydro-2H-pyran-4-yl)-1H-pyrazol-4-yl)oxy)quinolin-7-yl)-4-methyl piperidin-4-ol], for which the IC50 – broadly, the concentration at which inhibition is half-maximal – was 110 nM at ALK5 and 133 nM in series [1].
As for `FC(F)(F)Cn1cc2c(n1)CN(c1ccc3c(Oc4cn(C5CC5)nc4C4CCOCC4)ccnc3c1)C2` [Example 6, 4-((1-cyclopropyl-3-(tetrahydro-2H-pyran-4-yl)-1H-pyrazol-4-yl)oxy)-7-(2-(2,2,2-trifluoroethyl)-2,6-dihydropyrrolo[3,4-c]pyrazole-5(4H)-yl)quinoline], the figures for the IC50 (on ALK5; in series [1]) were 66 nM and 165 nM, respectively.
As for `Cn1cc(-c2ccc3c(Oc4cn(C5CC5)nc4C4CCOCC4)ccnc3c2)cn1` [Example 7, 4-((1-cyclopropyl-3-(tetrahydro-2H-pyran-4-yl)-1H-pyrazol-4-yl)oxy)-7-(1-methyl-1H-pyrazol-4-yl)quinoline], the IC50 on ALK5 came out at 5.2 nM; in series [1] it was 81 nM.
Turning to `CS(=O)(=O)c1ccc(-c2ccc3c(Oc4cn(C5CC5)nc4C4CCOCC4)ccnc3c2)cc1` [Example 15, 4-((1-cyclopropyl-3-(tetrahydro-2H-pyran-4-yl)-1H-pyrazol-4-yl)oxy)-7-(4-(methylsulfonyl)phenyl) quinoline], the figures for the IC50 (on ALK5; in series [1]) were 3.2 nM and 80 nM, respectively.
For the compound `CC(C)(O)c1cc(-c2ccc3c(Oc4cn(C5CC5)nc4C4CCOCC4)ccnc3c2)ccn1` [Example 16, 2-(4-(4-((1-cyclopropyl-3-(tetrahydro-2H-pyran-4-yl)-1H-pyrazol-4-yl)oxy)quinolin-7-yl)pyridin-2-yl)propan-2-ol], the IC50 came out at 100 nM on ALK5 and 200 nM in series [1].
Consider `COc1cc2nccc(Oc3cn(C4CC4)nc3C3CCOCC3)c2cc1C(N)=O` [Example 17, 4-((1-cyclopropyl-3-(tetrahydro-2H-pyran-4-yl)-1H-pyrazol-4-yl)oxy)-7-methoxyquinoline-6-carboxamide], for which the results for the IC50 (against ALK5; in series [1]) were 66 nM and 131 nM, respectively.
Consider `COc1cc2nccc(Oc3cn(C4CC4)nc3C3CCOCC3)c2cc1Nc1cnn(C)c1` [Example 18, 4-((1-cyclopropyl-3-(tetrahydro-2H-pyran-4-yl)-1H-pyrazol-4-yl)oxy)-7-methoxy-N-(1-methyl-1H-pyrazol-4-yl)quinoline-6-amine], for which the IC50 on ALK5 was found to be 6 nM; in series [1], 87 nM.
As to `COc1cc2nccc(Oc3cn(C4CC4)nc3C3CCOCC3)c2cc1Nc1cnn(C2COC2)c1` [Example 19, 4-((1-cyclopropyl-3-(tetrahydro-2H-pyran-4-yl)-1H-pyrazol-4-yl)oxa)-7-methoxy-N-(1-(oxetan-3-yl)-1H-pyrazol-4-yl)quinoline-6-amine], the IC50 at ALK5 stood at 10 nM; in series [1], 203 nM.
With `Cc1cccc(-c2nn3c(c2-c2ccnc4ccc(C(N)=O)cc24)CCC3)n1` [Galunisertib], the “cardiotoxicity (such as bleeding, functional deterioration, and inflammatory injury)” value in series [2] was “certain cardiotoxicity”.
